In ChEMBL document CHEMBL1201862, “PubChem BioAssay data set” (2004):
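Method: 48-hour compound exposure of cells in 96-well plates, five concentrations, linear interpolation of endpoints. Here, GI50 denotes the concentration required for 50% inhibition of growth.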 Active and inactive are the calls of the source. Cut-off read from the data, not from the text of the source: active = GI50 up to about 1.1 µM and inactive = higher.

Assays:
Assay in all cases: NCI anticancer screen, dose series, 48 h
U-251 = tested on: U-251
EKVX = tested on: EKVX
HOP-92 = tested on: HOP-92
HT-29 = tested on: HT-29
A498 = tested on: A498
SNB-75 = tested on: SNB-75
UO-31 = tested on: UO-31
NCI-H23 = tested on: NCI-H23
KM12 = tested on: KM12
TK-10 = tested on: TK-10
OVCAR-8 = tested on: OVCAR-8
OVCAR-3 = tested on: OVCAR-3
NCI/ADR-RES = tested on: NCI/ADR-RES
DU-145 = tested on: DU-145
SF-268 = tested on: SF-268
OVCAR-4 = tested on: OVCAR-4
OVCAR-5 = tested on: OVCAR-5
COLO 205 = tested on: COLO 205
HCT-15 = tested on: HCT-15
A549 = tested on: A549
SK-MEL-28 = tested on: SK-MEL-28
RXF 393 = tested on: RXF 393
PC-3 = tested on: PC-3
SK-MEL-5 = tested on: SK-MEL-5
ACHN = tested on: ACHN
IGROV-1 = tested on: IGROV-1
MDA-MB-231 = tested on: MDA-MB-231
CAKI-1 = tested on: CAKI-1
SW-620 = tested on: SW-620
SN12C = tested on: SN12C
SF-295 = tested on: SF-295
MDA-N = tested on: MDA-N
M14 = tested on: M14
SNB-19 = tested on: SNB-19
MDA-MB-435 = tested on: MDA-MB-435
K562 = tested on: K562
RPMI-8226 = tested on: RPMI-8226
HCT-116 = tested on: HCT-116
NCI-H522 = tested on: NCI-H522
Hs-578T = tested on: Hs-578T
CCRF-CEM = tested on: CCRF-CEM
SF-539 = tested on: SF-539
SR = tested on: SR
T47D = tested on: T47D
MOLT-4 = tested on: MOLT-4
HOP-62 = tested on: HOP-62
HL-60 = tested on: HL-60
786-0 = tested on: 786-0
LOX IMVI = tested on: LOX IMVI
HCC 2998 = tested on: HCC 2998
UACC-257 = tested on: UACC-257
NCI-H460 = tested on: NCI-H460
MCF7 = tested on: MCF7
UACC-62 = tested on: UACC-62
SK-MEL-2 = tested on: SK-MEL-2
SK-OV-3 = tested on: SK-OV-3
NCI-H226 = tested on: NCI-H226
Malme-3M = tested on: Malme-3M

## C[N+]12CCN(c3ccccc31)c1ccccc12.[O-][Cl+3]([O-])([O-])[O-]
U-251
  GI50: 6.01 µM (inactive)
EKVX
  GI50: 6.15 µM (inactive)
HOP-92
  GI50: > 10 µM (inactive)
HT-29
  GI50: > 10 µM (inactive)
A498
  GI50: > 10 µM (inactive)
SNB-75
  GI50: 6.28 µM (inactive)
UO-31
  GI50: > 10 µM (inactive)
NCI-H23
  GI50: 4.95 µM (inactive)
KM12
  GI50: > 10 µM (inactive)
TK-10
  GI50: > 10 µM (inactive)
OVCAR-8
  GI50: 7.16 µM (inactive)
OVCAR-3
  GI50: 3.44 µM (inactive)
NCI/ADR-RES
  GI50: > 10 µM (inactive)
DU-145
  GI50: > 10 µM (inactive)
SF-268
  GI50: 4.79 µM (inactive)
OVCAR-4
  GI50: > 10 µM (inactive)
OVCAR-5
  GI50: > 10 µM (inactive)
COLO 205
  GI50: 7.73 µM (inactive)
HCT-15
  GI50: > 10 µM
A549
  GI50: 4.91 µM (inactive)
SK-MEL-28
  GI50: > 10 µM (inactive)
RXF 393
  GI50: > 10 µM (inactive)
PC-3
  GI50: > 10 µM (inactive)
SK-MEL-5
  GI50: 2.29 µM (inactive)
ACHN
  GI50: > 10 µM (inactive)
IGROV-1
  GI50: > 10 µM (inactive)
MDA-MB-231
  GI50: > 10 µM (inactive)
CAKI-1
  GI50: > 10 µM (inactive)
SW-620
  GI50: > 10 µM (inactive)
SN12C
  GI50: 7.28 µM (inactive)
SF-295
  GI50: 7.46 µM (inactive)
MDA-N
  GI50: 2.79 µM (inactive)
M14
  GI50: > 10 µM (inactive)
SNB-19
  GI50: > 10 µM (inactive)
MDA-MB-435
  GI50: > 10 µM (inactive)

## CCn1ncc(N=O)c1N
K562
  GI50: > 100 µM (inactive)
RPMI-8226
  GI50: > 100 µM (inactive)
NCI-H23
  GI50: > 100 µM (inactive)
KM12
  GI50: > 100 µM (inactive)
SF-268
  GI50: > 100 µM (inactive)
HCT-116
  GI50: > 100 µM (inactive)
COLO 205
  GI50: > 100 µM (inactive)
NCI-H522
  GI50: > 100 µM (inactive)
A549
  GI50: > 100 µM (inactive)
Hs-578T
  GI50: > 100 µM (inactive)
CCRF-CEM
  GI50: > 100 µM (inactive)
IGROV-1
  GI50: > 100 µM (inactive)
SF-539
  GI50: > 100 µM (inactive)
MDA-N
  GI50: > 100 µM (inactive)
M14
  GI50: > 100 µM (inactive)
SNB-19
  GI50: > 100 µM (inactive)

## O=C(CSc1nc2ccc(I)cc2c(=O)n1Cc1ccccc1)NN1C(=O)CSC1c1ccccc1 (stereo not drawn)
U-251
  GI50: 29.6 µM (inactive)
EKVX
  GI50: 29.2 µM (inactive)
HOP-92
  GI50: 19.4 µM (inactive)
HT-29
  GI50: 35 µM (inactive)
SR
  GI50: 26.5 µM (inactive)
SNB-75
  GI50: 34.2 µM (inactive)
T47D
  GI50: 28.1 µM (inactive)
K562
  GI50: 26.5 µM (inactive)
RPMI-8226
  GI50: 31.2 µM (inactive)
MOLT-4
  GI50: 29.2 µM (inactive)
NCI-H23
  GI50: 18.3 µM (inactive)
KM12
  GI50: 22.5 µM (inactive)
TK-10
  GI50: 27.4 µM (inactive)
OVCAR-8
  GI50: 32.7 µM (inactive)
OVCAR-3
  GI50: 16.1 µM (inactive)
NCI/ADR-RES
  GI50: 26.5 µM (inactive)
HOP-62
  GI50: 18.6 µM (inactive)
DU-145
  GI50: 26.4 µM (inactive)
SF-268
  GI50: 28.8 µM (inactive)
OVCAR-4
  GI50: 25.8 µM (inactive)
HCT-116
  GI50: 24 µM (inactive)
OVCAR-5
  GI50: 53.8 µM (inactive)
COLO 205
  GI50: 15.3 µM (inactive)
NCI-H522
  GI50: 15.6 µM (inactive)
HCT-15
  GI50: 14.1 µM
HL-60
  GI50: 4.68 µM (inactive)
A549
  GI50: 35.2 µM (inactive)
786-0
  GI50: 38.3 µM (inactive)
LOX IMVI
  GI50: 19.5 µM (inactive)
SK-MEL-28
  GI50: 30.2 µM (inactive)
RXF 393
  GI50: 25.8 µM (inactive)
HCC 2998
  GI50: 21.5 µM (inactive)
UACC-257
  GI50: 20.4 µM (inactive)
PC-3
  GI50: 32.2 µM (inactive)
SK-MEL-5
  GI50: 18.5 µM (inactive)
ACHN
  GI50: 18.2 µM (inactive)
CCRF-CEM
  GI50: 29.2 µM (inactive)
NCI-H460
  GI50: 18 µM (inactive)
IGROV-1
  GI50: 22.6 µM (inactive)
MDA-MB-231
  GI50: 26.9 µM (inactive)
CAKI-1
  GI50: 3.13 µM (inactive)
SW-620
  GI50: 38 µM (inactive)
MCF7
  GI50: 19.2 µM (inactive)
UACC-62
  GI50: 19.3 µM (inactive)
SN12C
  GI50: 23 µM (inactive)
SF-295
  GI50: 27.1 µM (inactive)
SF-539
  GI50: 27.9 µM (inactive)
SK-MEL-2
  GI50: 24.3 µM (inactive)
MDA-N
  GI50: 35.7 µM (inactive)
M14
  GI50: 29.5 µM (inactive)
SK-OV-3
  GI50: 24.1 µM (inactive)
NCI-H226
  GI50: 26.9 µM (inactive)
SNB-19
  GI50: 40.7 µM (inactive)
MDA-MB-435
  GI50: 27.2 µM (inactive)

## Cc1cc(/N=C/c2c(CO)cnc(C)c2O)c(/N=C/c2c(CO)cnc(C)c2O)cc1C
U-251
  GI50: > 100 µM (inactive)
EKVX
  GI50: > 100 µM (inactive)
T47D
  GI50: > 100 µM (inactive)
K562
  GI50: > 100 µM (inactive)
NCI-H23
  GI50: > 100 µM (inactive)
Malme-3M
  GI50: > 100 µM (inactive)
OVCAR-3
  GI50: > 100 µM (inactive)
DU-145
  GI50: > 100 µM (inactive)
SF-268
  GI50: > 100 µM (inactive)
OVCAR-5
  GI50: > 100 µM (inactive)
NCI-H522
  GI50: 78.9 µM (inactive)
HCT-15
  GI50: > 100 µM
SK-MEL-28
  GI50: > 100 µM (inactive)
RXF 393
  GI50: > 100 µM (inactive)
UACC-257
  GI50: > 100 µM (inactive)
PC-3
  GI50: > 100 µM (inactive)
CCRF-CEM
  GI50: 17 µM (inactive)
SW-620
  GI50: > 100 µM (inactive)
MCF7
  GI50: 75.9 µM (inactive)
SN12C
  GI50: > 100 µM (inactive)
SF-539
  GI50: 95.9 µM (inactive)
SK-OV-3
  GI50: > 100 µM (inactive)
MDA-MB-435
  GI50: > 100 µM (inactive)
